ChEMBL document CHEMBL1132875, “Bicyclic pyridones as potent, efficacious and orally bioavailable thrombin inhibitors” (Bioorg Med Chem Lett, 2000)

Legend:
[1] = The compound was tested in vitro for its anticoagulant potency (2x APTT) of human plasma; assay type: functional
Serine protease 1 = Serine protease 1 (Homo sapiens, UniProt P07477); assay: The compound was tested for its ability to inhibit trypsin.
Prothrombin = Prothrombin (Homo sapiens, UniProt P00734); assay: The compound was tested for its ability to inhibit thrombin.
Rattus norvegicus [2] = assay: Compound was tested in vivo for its antithrombotic efficacy in six rats upon intravenous administration of 3 ug/kg/min dose and activity expressed as number of occlusions; assay type: functional
Rattus norvegicus [3] = assay: Final plasma concentration when 3 ug/kg/min compound administered intravenously in rat; assay type: ADME, organism-based; details: in vivo, iv, 0.003 mg/kg
[4] = Oral absorption kinetics (AUC) was determined after administration of compound orally at 1 mg/kg in dogs; assay type: ADME, organism-based, Canis lupus familiaris; set-up: dose 1 mg/kg, route oral; details: dog, in vivo
[5] = (§1) Half life was determined after oral administration at 1 mg/kg in dogs; assay type: ADME, organism-based, Canis lupus familiaris; set-up: dose 1 mg/kg, route oral; details: dog, in vivo
[6] = Maximum time taken for oral absorption was determined after oral administration at 1 mg/kg in dogs; assay type: ADME, organism-based, Canis lupus familiaris; set-up: dose 1 mg/kg, route oral; details: dog, in vivo
[7] = Cmax in dog plasma after 1mg/kg oral dose; assay type: ADME, organism-based, Canis lupus familiaris; set-up: dose 1 mg/kg, route oral
Rattus norvegicus [8] = assay: Final plasma concentration when 10 ug/kg/min compound administered intravenously in rat; assay type: ADME, organism-based; details: in vivo, iv, 0.01 mg/kg
Rattus norvegicus [9] = assay: Compound was tested in vivo for its antithrombotic efficacy in six rats upon intravenous administration of 10 ug/kg/min dose and activity expressed as number of occlusions; assay type: functional
Rattus norvegicus [10] = assay: Compound was tested in vivo for its antithrombotic efficacy in six rats upon intravenous administration of 10 ug/kg/min dose and activity expressed as number of occlusions
Canis familiaris = assay: as §1; assay type: ADME, organism-based, Canis lupus familiaris; set-up: dose 1 mg/kg, route oral; details: dog, in vivo

Sequence of Serine protease 1 (P07477 whole entry): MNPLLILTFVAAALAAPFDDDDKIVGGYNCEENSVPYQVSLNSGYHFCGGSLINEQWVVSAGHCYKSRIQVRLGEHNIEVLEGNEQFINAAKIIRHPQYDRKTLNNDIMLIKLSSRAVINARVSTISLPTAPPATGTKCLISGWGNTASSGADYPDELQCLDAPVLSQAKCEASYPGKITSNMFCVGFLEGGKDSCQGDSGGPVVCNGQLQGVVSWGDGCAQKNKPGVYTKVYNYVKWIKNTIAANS

Row | SMILES | Concentration doubling APTT [1] [nM] | Ki (Serine protease 1) [nM] | Ki (Prothrombin) [nM] | other results
1 | Cc1nc(N)ccc1CNC(=O)Cn1c(C)cc2c(c1=O)NC(=O)C(CC(C)C)(CC(C)C)C2 | 390 | – | – | –
2 | Cc1nc(N)ccc1CNC(=O)Cn1c(C)cc2c(c1=O)NC(=O)[C@H](Cc1ccccc1)C2 | 200 | 12700 | – | –
3 | CC[C@@H]1Cc2cc(C)n(CC(=O)NCc3ccc(N)nc3C)c(=O)c2NC1=O | 310 | 4200 | 1.6 | –
4 | Cc1nc(N)ccc1CNC(=O)Cn1c(C)cc2c(c1=O)NC(=O)[C@H](CC1CC1)C2 | 150 | 770 | 0.21 | Activity (Rattus norvegicus [2]): 1; concentration (Rattus norvegicus [3]): 185 nM
5 | CCC[C@@H]1Cc2cc(C)n(CC(=O)NCc3ccc(N)nc3C)c(=O)c2NC1=O | 180 | 510 | 0.33 | –
6 | Cc1nc(N)ccc1CNC(=O)Cn1c(C)cc2c(c1=O)NC(=O)[C@](C)(CC(C)C)C2 | 160 | 860 | – | AUC [4]: 2.97 µM·h; half-life [5]: 1.5 h; Tmax [6]: 0.5 h; Cmax [7]: 1370 nM
7 | Cc1nc(N)ccc1CNC(=O)Cn1c(C)cc2c(c1=O)NC(=O)CC2 | – | 101000 | – | –
8 | Cc1nc(N)ccc1CNC(=O)Cn1c(C)cc2c(c1=O)NC(=O)[C@H](CC1CCC1)C2 | 190 | 420 | – | concentration (Rattus norvegicus [8]): 596 nM; Activity (Rattus norvegicus [9]): 0
9 | CCC[C@H]1Cc2cc(C)n(CC(=O)NCc3ccc(N)nc3C)c(=O)c2NC1=O | – | 22000 | 36 | –
10 | Cc1nc(N)ccc1CNC(=O)Cn1c(C)cc2c(c1=O)NC(=O)[C@H](CC(C)C)C2 | 220 | 580 | 0.4 | concentration (Rattus norvegicus [8]): 255 nM; AUC [4]: 0.75 µM·h; half-life [5]: 2.35 h; Activity (Rattus norvegicus [10]): 0; Tmax [6]: 1.17 h; Cmax [7]: 180 nM
11 | Cc1nc(N)ccc1CNC(=O)Cn1c(C)ccc(NS(=O)(=O)Cc2ccccc2)c1=O [L-374087] | – | – | – | AUC [4]: 4.42 µM·h; T1/2 (Canis familiaris): 2.57 h
